From US20250340532A1, “HETEROCYCLIC COMPOUND CCR4 INHIBITOR AND USER THEREOF” (Xizang Haisco Pharmaceutical Co., Ltd., priority 2022, published 2025) come the findings set out here.

Some results are limits rather than exact numbers.

The target of one series is T1, CCR4 (Homo sapiens, UniProt P51679).
T1 construct: expressed in transfected cells; host or cells: HEK293
T1 sequence (P51679 1-360): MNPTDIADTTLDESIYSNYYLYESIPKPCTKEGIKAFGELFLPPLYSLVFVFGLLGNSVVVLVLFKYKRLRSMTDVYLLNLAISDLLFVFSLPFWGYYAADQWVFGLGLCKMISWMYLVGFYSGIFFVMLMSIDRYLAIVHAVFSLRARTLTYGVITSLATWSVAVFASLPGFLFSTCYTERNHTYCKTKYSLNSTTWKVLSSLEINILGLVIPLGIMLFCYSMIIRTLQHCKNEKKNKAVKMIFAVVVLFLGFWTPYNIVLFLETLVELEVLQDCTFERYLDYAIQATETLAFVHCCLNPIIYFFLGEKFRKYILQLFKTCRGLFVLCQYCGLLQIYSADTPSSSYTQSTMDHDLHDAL
Put plainly: Calcium flow detected by FLIPR. Type of series: cell-based. Conditions: CCR4/HEK293 cells, agonist CCL17, Fluo-4 calcium signal. Here is the method: CCR4/HEK293 cells were added to a 384-well cell culture plate (Greiner #781946) at a rate of 20 μL/well (20,000 cells/well) and incubated overnight in a 37° C., 5% CO2 incubator (Incubator, Thermo). On the second day, the 384-well cell culture plate was taken out of the incubator and the culture medium was removed; Then, 20 μL of detection buffer and 20 μL of 2X Fluo-4 Direct™ (Invitrogen, Cat #F10471) were added. Then, compounds were added at 10 μL/well (compounds were subjected to 4-fold serial dilution, and the highest detection concentration was 10 μM), and the cells were incubated in a 37° C., 5% CO2 incubator for 50 min, and then incubated at room temperature for 10 min. The 384-well culture plate was placed in FLIPR ([…]), 10 μL of 6X agonist CCL17 was added by using an automatic loader, and the fluorescence signal was read immediately. The mean and standard error (Mean±SEM) were statistically analyzed using Graphpad Prism software, and the IC50 value was calculated.
The experimental results are shown in Table 3, where A represents IC50<100 nm; B represents 100 nM≤IC50<500 nM, and C represents 500 nM≤IC50.

Series [1] can be described thus: Pharmacokinetic test in mice. The series is classed as in vivo, C57 mice. Particulars: for AUC(0-t) / clearance / Vd: male, C57, mouse, plasma; for Vd: read-out: Vdss. Here is the method:
1.1 Experimental animals: Male C57 mice, 20-25 g, 6 mice/compound. Purchased from Chengdu Ddossy Experimental Animals Co., Ltd.
1.2 Experimental design: On the day of the experiment, 24 C57 mice were randomly grouped according to their body weight. The animals were fasted with water available for 12 to 14 h one day before the administration and were fed 4 h after the administration.
Before and after the administration, 0.06 mL of blood was taken from the orbit of the animals under isoflurane anesthesia and placed in an EDTAK2 centrifuge tube. The blood was centrifuged at 5000 rpm and 4° C. for 10 min to collect plasma. The blood collection time points for the intravenous group and intragastric administration group were: 0 min, 5 min, 15 min, 30 min, 1 h, 2 h, 4 h, 7 h and 24 h. Before analysis and detection, all samples were stored at −80° C., and a quantitative analysis of samples was performed using LC-MS/MS.

Series [2] can be described thus: Pharmacokinetic test in rats. Conditions: for AUC / clearance / Vd: male, SD, rat, plasma; for Vd: read-out: Vdss. Type of series: in vivo, SD rats. Here is the method:
1.1 Experimental animals: male SD rats, about 220 g, 6-8 weeks old, 6 rats/compound. Purchased from Chengdu Ddossy Experimental Animals Co., Ltd.
1.2 Experimental design: on the day of the experiment, 36 SD rats were randomly grouped according to their body weights. The animals were fasted with water available for 12 to 14 h one day before the administration and were fed 4 h after the administration.
Before and after the administration, 0.15 ml of blood was taken from the orbit of the animals under isoflurane anesthesia and placed in an EDTAK2 centrifuge tube. The blood was centrifuged at 5000 rpm and 4° C. for 10 min to collect plasma. The blood collection time points for the intravenous administration group and intragastric administration group were: 0, 5 min, 15 min, 30 min, 1 h, 2 h, 4 h, 6 h, 8 h and 24 h. Before analysis and detection, all samples were stored at −80° C., and a quantitative analysis of samples was performed using LC-MS/MS.

For orientation: IC50 means the concentration at which inhibition is half-maximal. Broadly, the AUC(0-t) is the area under the concentration-time curve up to a stated or last time point. Higher therefore signals more exposure. A word on the clearance: it is the rate of elimination divided by the concentration. As usually defined, the AUC is concentration integrated over time. High values mean high exposure, low ones low exposure. On to `Cc1nc(N2CC(F)(C3CN(C4CC(C)(C(=O)O)C4)CCO3)C2)nc(N[C@H](C)c2ccc(Cl)cc2Cl)c1Cl` (single isomer, unassigned) [Compound 64 isomer 3], for which the IC50 at CCR4 was less than 100 nM. Also, the F is 118 ± 4.5% in series [1] (i.g. 10 mg/kg) and 108 ± 21% in series [2] (i.g. 10 mg/kg). Moreover, the AUC(0-t) is 4490 ± 361 ng·h/mL in series [1] (iv, i.v. 2.5 mg/kg) and 21200 ± 815 ng·h/mL in series [1] (po, i.g. 10 mg/kg). In addition, the clearance in series [1] (iv, i.v. 2.5 mg/kg) is 9.26 ± 0.73 mL/min/kg; in series [2] (iv, i.v. 2.5 mg/kg) it was 6.85 ± 1.2 mL/min/kg. Also, the Vd in series [1] (iv, i.v. 2.5 mg/kg) was determined as 1.94 ± 0.053 L/kg; in series [2] (iv, i.v. 2.5 mg/kg) it was 1.38 ± 0.25 L/kg. In addition, the AUC in series [2] (iv, i.v. 2.5 mg/kg) was 6020 ± 1390 ng·h/mL; in series [2] (po, i.g. 10 mg/kg), 26100 ± 5150 ng·h/mL.
For the molecule `Cc1nc(N2CCC(C3CN(CCC(=O)O)CCO3)CC2)nc(NC(C)c2ccc(Cl)cc2Cl)c1Cl` (single isomer, unassigned) [Compound 76 isomer 2], on CCR4, the IC50 was less than 100 nM. The molecule further came in with a F in series [1] (i.g. 10 mg/kg) of 123 ± 14%. Moreover, in series [1] (iv, i.v. 2.5 mg/kg), the AUC(0-t) was 1790 ± 125 ng·h/mL, the clearance is 23.1 ± 1.7 mL/min/kg and the Vd came out at 1.44 ± 0.12 L/kg. The same molecule yielded an AUC(0-t) in series [1] (po, i.g. 10 mg/kg) of 8840 ± 1010 ng·h/mL.
Regarding `Cc1nc(N2CC3C(C2)C3C2CN(C3CC(C)(C(=O)O)C3)CCO2)nc(NC(C)c2ccc(Cl)cc2Cl)c1Cl` (single isomer, unassigned) [Compound 78 isomer 3], the IC50 at CCR4 was less than 100 nM. In series [2] (i.g. 10 mg/kg), this molecule registered an F greater than 98%. For the same molecule, in series [2] (iv, i.v. 2.5 mg/kg), the AUC came out at 4560 ± 638 ng·h/mL, the clearance is 9.22 ± 1.2 mL/min/kg and the Vd is 2.07 ± 0.28 L/kg. This molecule also came in with an AUC in series [2] (po, i.g. 10 mg/kg) of 28400 ± 7070 ng·h/mL.
Turning to `C[C@@H](Nc1cc(N2CC([C@H]3CCCN([C@H]4C[C@](C)(C(=O)O)C4)C3)C2)ncn1)c1ccc(Cl)cc1Cl` [Compound 15], the IC50 at CCR4 was less than 100 nM.
On to `Cc1nc(N[C@H](C)c2ccc(Cl)cc2Cl)nc(N2CC([C@H]3CCCN([C@H]4C[C@](C)(C(=O)O)C4)C3)C2)n1` [Compound 17], for which, on CCR4, the IC50 was less than 100 nM.
Regarding `C[C@H](c1ccc(Cl)cc1Cl)n1nc(C#N)c2ncc(N3CC(C4CN(CCO)CCO4)C3)nc21` (stereo partly drawn) [Compound 19], the IC50 on CCR4 is less than 100 nM.
The same measure, in the same setting: the figure for `C[C@@H](Nc1cc(N2CC([C@H]3CCCN([C@H]4C[C@](C)(C(=O)O)C4)C3)C2)cnn1)c1ccc(Cl)cc1Cl` [Compound 21] is less than 100 nM; for `C#Cc1ccc(C(C)Nc2cc(N3CC([C@H]4CCCN([C@H]5C[C@](C)(C(=O)O)C5)C4)C3)nc3ccnn23)c(Cl)c1` (stereo partly drawn) [Compound 22] it is less than 100 nM; for `C#Cc1ccc(C(C)Nc2cc(N3CC([C@H]4CCCN([C@H]5C[C@](C)(C(=O)O)C5)C4)C3)ncn2)c(Cl)c1` (stereo partly drawn) [Compound 23] it is less than 100 nM.
The same measure, in the same setting: the figure for `C[C@@H](Nc1cc(N2CC([C@H]3CCCN(CCO)C3)C2)nc2ccnn12)c1ccc(Cl)cc1Cl` [Compound 24] is less than 100 nM.
Still for that read-out and setting: the figure for `C[C@@H](Nc1cc(N2CC([C@H]3CCCN([C@H]4C[C@](C)(C(=O)O)C4)C3)C2)n2nccc2n1)c1ccc(Cl)cc1Cl` [Compound 25] is less than 100 nM.
Take `Cc1nc(N[C@H](C)c2ccc(Cl)cc2Cl)cc(N2CC([C@H]3CCCN([C@H]4C[C@](C)(C(=O)O)C4)C3)C2)n1` [Compound 26]: the IC50 at CCR4 is less than 100 nM.
Same read-out and setting: the figure for `C[C@@H](Nc1cc(N2CC([C@H]3CCCN(CCO)C3)C2)ncn1)c1ccc(Cl)cc1Cl` [Compound 27] is less than 100 nM.
Still for that read-out and setting: the figure for `Cc1nc(N2CC([C@@H]3CN(CCO)CCO3)C2)nc(N[C@H](C)c2ccc(Cl)cc2Cl)c1Cl` [Compound 31] is less than 100 nM; for `C[C@@H](Nc1nc(N2CC([C@H]3CCCN([C@H]4C[C@](C)(C(=O)O)C4)C3)C2)c2sccc2n1)c1ccc(Cl)cc1Cl` [Compound 33] it is less than 100 nM.
Still for that read-out and setting: the figure for `C[C@@H](Nc1nc2c(c(N3CC([C@H]4CCCN([C@H]5C[C@](C)(C(=O)O)C5)C4)C3)n1)CCC2)c1ccc(Cl)cc1Cl` [Compound 34] is 100 to 500 nM.
Consider `Cc1nc(N2CC(C3CN(CC(C)(C)O)CCO3)C2)nc(N[C@H](C)c2ccc(Cl)cc2Cl)c1Cl` (stereo partly drawn) [Compound 35], for which the IC50 on CCR4 was less than 100 nM.
The same measure, in the same setting: the figure for `Cc1nc(N2CC([C@H]3CCCN([C@H]4C[C@](C)(C(=O)O)C4)C3)C2)nc2c1CCCN2C(C)c1ccc(Cl)cc1Cl` (stereo partly drawn) [Compound 36] is 100 to 500 nM; for `C#Cc1ccc(C(C)Nc2nc(N3CC([C@H]4CCCN(CCO)C4)C3)nc(C)c2Cl)c(Cl)c1` (stereo partly drawn) [Compound 38] it is 100 to 500 nM; for `Cc1cc(N2CC([C@H]3CCCN([C@H]4C[C@](C)(C(=O)O)C4)C3)C2)cc(N[C@H](C)c2ccc(Cl)cc2Cl)n1` [Compound 39] it is less than 100 nM.
Regarding `C[C@@H](Nc1nc(N2CC([C@H]3CCCN([C@H]4C[C@](C)(C(=O)O)C4)C3)C2)c2ccccc2n1)c1ccc(Cl)cc1Cl` [Compound 40], the IC50 at CCR4 was less than 100 nM.
The same measure, in the same setting: the figure for `C[C@@H](Nc1nc(N2CC([C@H]3CCCN([C@H]4C[C@](C)(C(=O)O)C4)C3)C2)c2ccn(C)c2n1)c1ccc(Cl)cc1Cl` [Compound 43] is 100 to 500 nM; for `C[C@@H](Nc1nc(N2CC([C@H]3CCCN([C@H]4C[C@](C)(C(=O)O)C4)C3)C2)c2c(ccn2C)n1)c1ccc(Cl)cc1Cl` [Compound 44] it is 100 to 500 nM.
The same measure, in the same setting: the figure for `C[C@@H](Nc1nc2c(c(N3CC([C@H]4CCCN([C@H]5C[C@](C)(C(=O)O)C5)C4)C3)n1)COC2)c1ccc(Cl)cc1Cl` [Compound 45] is 100 to 500 nM; for `C[C@@H](Nc1nc(N2CC([C@H]3CCCN([C@H]4C[C@](C)(C(=O)O)C4)C3)C2)c2occc2n1)c1ccc(Cl)cc1Cl` [Compound 51] it is less than 100 nM; for `C[C@@H](Nc1cc(N2CC([C@H]3CCCN([C@H]4C[C@](C)(C(=O)O)C4)C3)C2)nc(C(F)(F)F)n1)c1ccc(Cl)cc1Cl` [Compound 52] it is 100 to 500 nM.
Still for that read-out and setting: the figure for `C[C@@H](Nc1cc(N2CC([C@H]3CCCN([C@H]4C[C@](C)(C(=O)O)C4)C3)C2)nc2nccn12)c1ccc(Cl)cc1Cl` [Compound 55] is less than 100 nM.
Take `Cc1nc(N[C@H](C)c2ccc(Cl)cc2Cl)nc(N2CC([C@H]3CCCN([C@H]4C[C@](C)(C(=O)O)C4)C3)C2)c1Cl` [Compound 56]: the IC50 on CCR4 fell in the range of 100 to 500 nM.
The same measure, in the same setting: the figure for `Cc1nc(N2CC(C3CN(C4CC(C)(C#N)C4)CCO3)C2)nc(N[C@H](C)c2ccc(Cl)cc2Cl)c1Cl` (stereo partly drawn) [Compound 70] is 100 to 500 nM; for `Cc1nc(N2CC(F)(C3CN(CCC(=O)O)CCO3)C2)nc(N[C@H](C)c2ccc(Cl)cc2Cl)c1Cl` (stereo partly drawn) [Compound 88] it is less than 100 nM; for `C[C@@H](Nc1cc(N2CCC(C3CN(CCO)CCO3)CC2)nc2ccnn12)c1ccc(Cl)cc1Cl` (stereo partly drawn) [Compound 112] it is less than 100 nM.
